The test system of the experiment is lesions of telangiectatic melasma. An excerpt:
As is known, the increase in pigmentation occurs to a greater extent during the day, wherein the action of the light is an important causal factor.

Consider one molecule from patent publication US10744135B2, “Use of an active substance in the treatment of melasma” (priority 2016, dated 2020).

Each structure is given as a SMILES string.

As for `Brc1c(NC2=NCCN2)ccc2nccnc12` [brimonidine], under “applied in the morning”, the “duration of effects in minimising the deterioration brought about by sunlight” value is “up to 9 hours”. Moreover, the “improvement of the lesions of telangiectatic melasma” value (topical, following a period of 30 to 60 minutes from application) was “immediate and obvious improvement”. The “improvement in the hyperpigmentation of the skin of the melasma lesions” value (topical, minutes following application, patient (FIGS. 1-4)) was “effective improvement in the hyperpigmentation”.
